Key:
COX-2 [1] = target: T1, COX-2 (Homo sapiens, UniProt P35354); assay: Whole cell assay for COX-2 using CHO transfected cell line CHO[hCOX-2], inhibition of PGE2 synthesis; format: cell-based; settings: CHO[hCOX-2] cells, 10 μM AA, PGE2; read-out: COX-2 (IC50 mM) CHO
T1 construct: incubation of human whole blood with LPS, which induces COX-2; endogenous in cells; host or cells: heparinized fresh whole blood of human volunteers, incubated with LPS for 24 h
T1 sequence (P35354 18-604): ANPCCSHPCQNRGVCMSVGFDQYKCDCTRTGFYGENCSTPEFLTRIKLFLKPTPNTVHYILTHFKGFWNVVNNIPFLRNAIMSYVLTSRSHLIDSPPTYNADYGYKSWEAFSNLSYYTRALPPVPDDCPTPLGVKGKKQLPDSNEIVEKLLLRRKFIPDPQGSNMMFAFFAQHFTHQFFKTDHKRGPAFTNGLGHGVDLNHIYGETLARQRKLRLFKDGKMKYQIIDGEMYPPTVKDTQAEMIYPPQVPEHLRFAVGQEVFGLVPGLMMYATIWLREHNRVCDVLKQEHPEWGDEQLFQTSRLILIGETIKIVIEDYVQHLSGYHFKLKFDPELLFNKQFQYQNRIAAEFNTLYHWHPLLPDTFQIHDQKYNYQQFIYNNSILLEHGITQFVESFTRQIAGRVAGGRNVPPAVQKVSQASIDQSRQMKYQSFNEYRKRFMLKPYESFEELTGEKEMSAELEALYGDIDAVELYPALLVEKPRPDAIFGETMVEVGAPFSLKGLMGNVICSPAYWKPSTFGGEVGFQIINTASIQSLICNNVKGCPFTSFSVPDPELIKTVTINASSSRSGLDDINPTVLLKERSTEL

COX-2 [2] = target: T1, COX-2; assay: Human whole blood assay, COX-2 (LPS-induced PGE2 production); format: cell-based; settings: human whole blood, LPS-induced PGE2, 24 h; read-out: COX-2 (IC50 mM) HWB
Source text: (§1) As well, platelets in whole blood contain a large amount of the COX-1 enzyme. Immediately following blood clotting, platelets are activated through a thrombin-mediated mechanism. This reaction results in the production of thromboxane B2 (TxB2) via activation of COX-1. Thus, the effect of test compounds on TxB2 levels following blood clotting can be examined and used as an index for COX-1 activity. Therefore, the degree of selectivity by the test compound can be determined by measuring the levels of PGE2 after LPS induction (COX-2) and TxB2 following blood clotting (COX-1) in the same assay.
A. COX-2 (LPS-induced PGE2 production)
Fresh blood is collected in heparinized tubes by venipuncture from both male and female volunteers. The subjects have no apparent inflammatory conditions and have not taken any NSAIDs for at least 7 days prior to blood collection. Plasma is immediately obtained from a 2 mL blood aliquot to use as blank (basal levels of PGE2).

COX-1 [3] = target: T2, COX-1 (Homo sapiens, UniProt P23219); assay: Assay of COX-1 activity from U937 cell microsomes; format: biochemical; set-up: Assay of COX-1 Activity from U937 cell microsomes; endogenous in cells; host or cells: U937 cells, 100,000×g microsomal pellet; settings: U937 cell microsomes, PGE2; read-out: COX-1 (IC50 mM) U-937
Description: Assay of COX-1 Activity from U937 cell microsomes
U 937 cells are pelleted by centrifugation at 500×g for 5 min and washed once with phosphate-buffered saline and repelleted. Cells are resuspended in homogenization buffer consisting of 0.1 M Tris-HCl, pH 7.4, 10 mM EDTA, 2 μg/ml leupeptin, 2 μg/ml soybean trypsin inhibitor, 2 μg/ml aprotinin and 1 mM phenyl methyl sulfonyl fluoride. The cell suspension is sonicated 4 times for 10 sec and is centrifuged at 10,000×g for 10 min at 4° C. The supernatant is centrifuged at 100,000×g for 1 hr at 4° C. The 100,000×g microsomal pellet is resuspended in 0.1 M Tris-HCl, pH 7.4, 10 mM EDTA to approximately 7 mg protein/ml and stored at -80° C.
Microsomal preparations are thawed immediately prior to use, subjected to a brief sonication, and then diluted to a protein concentration of 125 μg/ml in 0.1 M Tris-HCl buffer, pH 7.4 containing 10 mM EDTA, 0.5 mM phenol, 1 mM reduced glutathione and 1 μM hematin. Assays are performed in duplicate in a final volume of 250 μl. Initially, 5 μl of DMSO vehicle or drug in DMSO are added to 20 μl of 0.1 M Tris-HCl buffer, pH 7.4 containing 10 mM EDTA in wells of a 96-deepwell polypropylene titre plate. 200 μl of the microsomal preparation are then added and pre-incubated for 15 min at room temperature before addition of 25 μl of […] arachidonic acid in […] Tris-HCl and 10 mM EDTA, pH 7.4. Samples are incubated for 40 min at room temperature and the reaction is stopped by the addition of 25 μl of 1 N HCl. Samples are neutralized with 25 μl of 1 N NaOH prior to quantitation of PGE2 content by radioimmunoassay (Dupont-NEN or Amersham assay kits). Cyclooxygenase activity is defined as the difference between PGE2 levels in samples incubated in the presence of arachidonic acid and ethanol vehicle.
In the assay, inhibition is determined by measuring the amount of prostaglandin E2 (PGE2) synthesized in the presence of arachidonic acid, cyclooxygenase-1 or cyclooxygenase-2 and a putative inhibitor.

COX-1 [4] = target: T2, COX-1; assay: Human whole blood assay, COX-1 (clotting-induced TxB2 production); format: cell-based; set-up: platelets in whole blood contain a large amount of the COX-1 enzyme; endogenous in cells; host or cells: fresh human whole blood without anticoagulant (platelets), clotted 1 h at 37° C; settings: clotting-induced TxB2, 1 h, read-out: COX-1 (IC50 mM) HWB
Description: as §1, with “Human whole blood provides a protein and cell-rich milieu appropriate for the study of biochemical efficacy of anti-inflammatory compounds such as selective COX-2 inhibitors. […] This is consistent with the observation that COX-2 inhibitors have no effect on PGE2 production in normal blood. These inhibitors are active only after incubation of human whole blood with LPS, which induces COX-2. This assay can be used to evaluate the inhibitory effect of selective COX-2 inhibitors on PGE2 production. As” for “As”
B. COX-1 (Clotting-induced TxB2 production)
Fresh blood is collected into vacutainers containing no anticoagulants. […] The tubes are vortexed and incubated at 37° C. for 1 hour to allow blood to clot. At the end of incubation, serum is obtained by centrifugation (12,000×g for 5 min.). […]

T2 sequence (P23219 24-599): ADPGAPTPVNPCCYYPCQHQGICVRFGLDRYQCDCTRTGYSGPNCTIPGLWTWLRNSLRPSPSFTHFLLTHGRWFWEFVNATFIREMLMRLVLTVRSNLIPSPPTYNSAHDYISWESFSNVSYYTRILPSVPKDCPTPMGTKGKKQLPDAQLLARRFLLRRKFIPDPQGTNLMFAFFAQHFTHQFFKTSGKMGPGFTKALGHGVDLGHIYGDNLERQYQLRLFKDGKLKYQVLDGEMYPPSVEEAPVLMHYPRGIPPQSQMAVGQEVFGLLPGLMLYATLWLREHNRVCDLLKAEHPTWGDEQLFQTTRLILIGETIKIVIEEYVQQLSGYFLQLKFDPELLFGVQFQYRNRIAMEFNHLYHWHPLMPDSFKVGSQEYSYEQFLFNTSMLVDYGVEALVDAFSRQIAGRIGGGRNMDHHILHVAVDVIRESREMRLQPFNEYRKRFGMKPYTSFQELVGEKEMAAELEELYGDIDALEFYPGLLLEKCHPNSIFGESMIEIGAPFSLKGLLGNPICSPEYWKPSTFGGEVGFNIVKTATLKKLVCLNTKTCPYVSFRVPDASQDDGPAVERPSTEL

Row | SMILES | IC50 (COX-2 [1]) [nM] | IC50 (COX-2 [2]) [mM] | IC50 (COX-1 [3]) [mM] | IC50 (COX-1 [4]) [mM]
1 | CS(=O)(=O)c1ccc(-c2cc(C(F)(F)F)cnc2N2CCCCC2)cc1 [Example 2, 3-(4-Methylsulfonyl)phenyl-2-piperidin-1-yl-5-trifluoromethylpyridine] | 4 | 0.0003 | 0.003 | > 0.1
2 | CS(=O)(=O)c1ccc(-c2cc(C(F)(F)F)cnc2N2CCC(F)(F)CC2)cc1 [Example 24, 2-(4,4-Difluoro)piperidin-1-yl-3-(4-methylsulfonyl)phenyl-5-trifluoromethylpyridine] | 20 | 0.0103 | > 0.01 | 
3 | CS(=O)(=O)c1ccc(-c2cc(C(F)(F)F)cnc2N2CCCC(F)(F)C2)cc1 [Example 25, 2-(3,3-Difluoro)piperidin-1-yl-3-(4-methylsulfonyl)phenyl-5-trifluoromethylpyridine] | 80 | 0.0047 | > 0.01 | 
4 | CS(=O)(=O)c1ccc(-c2cc(C(F)(F)F)cnc2N2CCC(F)CC2)cc1 [Example 26, 2-(4-Fluoro)piperidin-1-yl-3-(4-methylsulfonyl)phenyl-5-trifluoromethylpyridine] | 10 | 0.0017 | 0.003 to 0.01 | 
5 | CS(=O)(=O)c1ccc(-c2cc(C(F)(F)F)cnc2N2CCOCC2)cc1 [Example 27, 3-(4-Methylsulfonyl)phenyl-2-morpholin-4-yl-5-trifluoromethylpyridine] | 60 | 0.0036 | > 0.01 | 
6 | CS(=O)(=O)c1ccc(-c2cc(C(F)(F)F)cnc2N2CCSCC2)cc1 [Example 28, 3-(4-Methylsulfonyl)phenyl-2-thiomorpholin-4-yl-5-trifluoromethylpyridine] | 30 | 0.0014 | 0.003 to 0.01 | 

Source: patent US6004950A, “2-aminopyridines as inhibitors of cyclooxygenase-2” (Merck Frosst Canada, Inc., priority 1998, dated 1999)
